{"source": "ChEMBL document CHEMBL1201862", "about": "“PubChem BioAssay data set” (2004)", "experiment_in_all_cases": "NCI tumour cell line growth inhibition, 48 h", "key": {"[1]": {"test_system": "786-0"}, "[2]": {"test_system": "A498"}, "[3]": {"test_system": "A549"}, "[4]": {"test_system": "ACHN"}, "[5]": {"test_system": "CAKI-1"}, "[6]": {"test_system": "CCRF-CEM"}, "[7]": {"test_system": "COLO 205"}, "[8]": {"test_system": "DLD-1"}, "[9]": {"test_system": "DMS-114"}, "[10]": {"test_system": "DMS-273"}, "[11]": {"test_system": "EKVX"}, "[12]": {"test_system": "HCC 2998"}, "[13]": {"test_system": "HCT-116"}, "[14]": {"test_system": "HCT-15"}, "[15]": {"test_system": "HL-60"}, "[16]": {"test_system": "HOP-18"}, "[17]": {"test_system": "HOP-62"}, "[18]": {"test_system": "HOP-92"}, "[19]": {"test_system": "HT-29"}, "[20]": {"test_system": "IGROV-1"}, "[21]": {"test_system": "K562"}, "[22]": {"test_system": "KM-20L2"}, "[23]": {"test_system": "KM12"}, "[24]": {"test_system": "LOX IMVI"}, "[25]": {"test_system": "LXFL 529"}, "[26]": {"test_system": "M14"}, "[27]": {"test_system": "M19-MEL"}, "[28]": {"test_system": "MOLT-4"}, "[29]": {"test_system": "Malme-3M"}, "[30]": {"test_system": "NCI-H226"}, "[31]": {"test_system": "NCI-H23"}, "[32]": {"test_system": "NCI-H460"}, "[33]": {"test_system": "NCI-H522"}, "[34]": {"test_system": "OVCAR-3"}, "[35]": {"test_system": "OVCAR-4"}, "[36]": {"test_system": "OVCAR-5"}, "[37]": {"test_system": "OVCAR-8"}, "[38]": {"test_system": "RPMI-8226"}, "[39]": {"test_system": "RXF 393"}, "[40]": {"test_system": "RXF 631"}, "[41]": {"test_system": "SF-268"}, "[42]": {"test_system": "SF-295"}, "[43]": {"test_system": "SF-539"}, "[44]": {"test_system": "SK-MEL-28"}, "[45]": {"test_system": "SK-MEL-2"}, "[46]": {"test_system": "SK-MEL-5"}, "[47]": {"test_system": "SK-OV-3"}, "[48]": {"test_system": "SN12C"}, "[49]": {"test_system": "SNB-19"}, "[50]": {"test_system": "SNB-75"}, "[51]": {"test_system": "SNB-78"}, "[52]": {"test_system": "SR"}, "[53]": {"test_system": "SW-620"}, "[54]": {"test_system": "TK-10"}, "[55]": {"test_system": "U-251"}, "[56]": {"test_system": "UACC-257"}, "[57]": {"test_system": "UACC-62"}, "[58]": {"test_system": "UO-31"}, "[59]": {"test_system": "XF498"}}, "note": "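Values below derive from 48-hour exposures of cells grown in 96-well plates, with endpoints linearly interpolated between the two concentrations bracketing the appropriate inhibition level. GI50: concentration for 50% inhibition of growth.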 Active and inactive are the calls of the source. Rule as the data show it: active = GI50 up to about 1.1 µM and inactive = higher.", "data": [{"molecule": "COc1cccc(/C=C/C(=O)c2sc(C(N)=S)nc2C)c1O", "values": [{"measurement": "GI50", "setting": "[1]", "value": "34.8 µM (inactive)"}, {"measurement": "GI50", "setting": "[2]", "value": "> 100 µM (inactive)"}, {"measurement": "GI50", "setting": "[3]", "value": "> 100 µM (inactive)"}, {"measurement": "GI50", "setting": "[4]", "value": "> 100 µM (inactive)"}, {"measurement": "GI50", "setting": "[5]", "value": "> 100 µM (inactive)"}, {"measurement": "GI50", "setting": "[6]", "value": "21.4 µM (inactive)"}, {"measurement": "GI50", "setting": "[7]", "value": "> 68.2 µM (inactive)"}, {"measurement": "GI50", "setting": "[8]", "value": "28.3 µM (inactive)"}, {"measurement": "GI50", "setting": "[9]", "value": "50.6 µM (inactive)"}, {"measurement": "GI50", "setting": "[10]", "value": "28.6 µM (inactive)"}, {"measurement": "GI50", "setting": "[11]", "value": "> 100 µM (inactive)"}, {"measurement": "GI50", "setting": "[12]", "value": "75.5 µM (inactive)"}, {"measurement": "GI50", "setting": "[13]", "value": "38.5 µM (inactive)"}, {"measurement": "GI50", "setting": "[14]", "value": 26.1, "unit": "µM"}, {"measurement": "GI50", "setting": "[15]", "value": "22.2 µM (inactive)"}, {"measurement": "GI50", "setting": "[16]", "value": "> 41.5 µM (inactive)"}, {"measurement": "GI50", "setting": "[17]", "value": "> 100 µM (inactive)"}, {"measurement": "GI50", "setting": "[18]", "value": "> 100 µM (inactive)"}, {"measurement": "GI50", "setting": "[19]", "value": "> 100 µM (inactive)"}, {"measurement": "GI50", "setting": "[20]", "value": "> 61.5 µM (inactive)"}, {"measurement": "GI50", "setting": "[21]", "value": "42.4 µM (inactive)"}, {"measurement": "GI50", "setting": "[22]", "value": "> 100 µM (inactive)"}, {"measurement": "GI50", "setting": "[23]", "value": "> 62.2 µM (inactive)"}, {"measurement": "GI50", "setting": "[24]", "value": "22.4 µM (inactive)"}, {"measurement": "GI50", "setting": "[25]", "value": "14.3 µM (inactive)"}, {"measurement": "GI50", "setting": "[26]", "value": "> 77.4 µM (inactive)"}, {"measurement": "GI50", "setting": "[27]", "value": "34.4 µM (inactive)"}, {"measurement": "GI50", "setting": "[28]", "value": "25.1 µM (inactive)"}, {"measurement": "GI50", "setting": "[29]", "value": "> 100 µM (inactive)"}, {"measurement": "GI50", "setting": "[30]", "value": "> 100 µM (inactive)"}, {"measurement": "GI50", "setting": "[31]", "value": "68.1 µM (inactive)"}, {"measurement": "GI50", "setting": "[32]", "value": "> 76.4 µM (inactive)"}, {"measurement": "GI50", "setting": "[33]", "value": "> 48.3 µM (inactive)"}, {"measurement": "GI50", "setting": "[34]", "value": "> 60.3 µM (inactive)"}, {"measurement": "GI50", "setting": "[35]", "value": "> 72.8 µM (inactive)"}, {"measurement": "GI50", "setting": "[36]", "value": "> 100 µM (inactive)"}, {"measurement": "GI50", "setting": "[37]", "value": "> 96.2 µM (inactive)"}, {"measurement": "GI50", "setting": "[38]", "value": "20.5 µM (inactive)"}, {"measurement": "GI50", "setting": "[39]", "value": "> 74.3 µM (inactive)"}, {"measurement": "GI50", "setting": "[40]", "value": "31.1 µM (inactive)"}, {"measurement": "GI50", "setting": "[41]", "value": "> 86.3 µM (inactive)"}, {"measurement": "GI50", "setting": "[42]", "value": "> 94.6 µM (inactive)"}, {"measurement": "GI50", "setting": "[43]", "value": "52.7 µM (inactive)"}, {"measurement": "GI50", "setting": "[44]", "value": "> 100 µM (inactive)"}, {"measurement": "GI50", "setting": "[45]", "value": "> 100 µM (inactive)"}, {"measurement": "GI50", "setting": "[46]", "value": "> 100 µM (inactive)"}, {"measurement": "GI50", "setting": "[47]", "value": "> 100 µM (inactive)"}, {"measurement": "GI50", "setting": "[48]", "value": "> 100 µM (inactive)"}, {"measurement": "GI50", "setting": "[49]", "value": "> 100 µM (inactive)"}, {"measurement": "GI50", "setting": "[50]", "value": "> 100 µM (inactive)"}, {"measurement": "GI50", "setting": "[51]", "value": "> 100 µM (inactive)"}, {"measurement": "GI50", "setting": "[52]", "value": "12.5 µM (inactive)"}, {"measurement": "GI50", "setting": "[53]", "value": "21.2 µM (inactive)"}, {"measurement": "GI50", "setting": "[54]", "value": "> 100 µM (inactive)"}, {"measurement": "GI50", "setting": "[55]", "value": "28.8 µM (inactive)"}, {"measurement": "GI50", "setting": "[56]", "value": "> 100 µM (inactive)"}, {"measurement": "GI50", "setting": "[57]", "value": "> 100 µM (inactive)"}, {"measurement": "GI50", "setting": "[58]", "value": "56.4 µM (inactive)"}, {"measurement": "GI50", "setting": "[59]", "value": "> 100 µM (inactive)"}]}]}
